In paper PMC12677052, “Identification and rescue of congenital hyperinsulinism-associated ABCC8 mutations that impair KATP channel trafficking” (The Journal of Biological Chemistry, 2025):

Experiments:
Assay type in all cases: cell-based
[1] = target: T1, sulfonylurea receptor 1 (SUR1) (Homo sapiens, UniProt Q09428); test: Rb+ efflux inhibition in cells after […] overnight treatment and washout
T1 construct: gene ABCC8; human FLAG-tagged SUR1 (f-SUR1) coexpressed with human Kir6.2 in COSm6 cells; with Kir6.2 (KCNJ11)
T1 sequence (Q09428 whole entry): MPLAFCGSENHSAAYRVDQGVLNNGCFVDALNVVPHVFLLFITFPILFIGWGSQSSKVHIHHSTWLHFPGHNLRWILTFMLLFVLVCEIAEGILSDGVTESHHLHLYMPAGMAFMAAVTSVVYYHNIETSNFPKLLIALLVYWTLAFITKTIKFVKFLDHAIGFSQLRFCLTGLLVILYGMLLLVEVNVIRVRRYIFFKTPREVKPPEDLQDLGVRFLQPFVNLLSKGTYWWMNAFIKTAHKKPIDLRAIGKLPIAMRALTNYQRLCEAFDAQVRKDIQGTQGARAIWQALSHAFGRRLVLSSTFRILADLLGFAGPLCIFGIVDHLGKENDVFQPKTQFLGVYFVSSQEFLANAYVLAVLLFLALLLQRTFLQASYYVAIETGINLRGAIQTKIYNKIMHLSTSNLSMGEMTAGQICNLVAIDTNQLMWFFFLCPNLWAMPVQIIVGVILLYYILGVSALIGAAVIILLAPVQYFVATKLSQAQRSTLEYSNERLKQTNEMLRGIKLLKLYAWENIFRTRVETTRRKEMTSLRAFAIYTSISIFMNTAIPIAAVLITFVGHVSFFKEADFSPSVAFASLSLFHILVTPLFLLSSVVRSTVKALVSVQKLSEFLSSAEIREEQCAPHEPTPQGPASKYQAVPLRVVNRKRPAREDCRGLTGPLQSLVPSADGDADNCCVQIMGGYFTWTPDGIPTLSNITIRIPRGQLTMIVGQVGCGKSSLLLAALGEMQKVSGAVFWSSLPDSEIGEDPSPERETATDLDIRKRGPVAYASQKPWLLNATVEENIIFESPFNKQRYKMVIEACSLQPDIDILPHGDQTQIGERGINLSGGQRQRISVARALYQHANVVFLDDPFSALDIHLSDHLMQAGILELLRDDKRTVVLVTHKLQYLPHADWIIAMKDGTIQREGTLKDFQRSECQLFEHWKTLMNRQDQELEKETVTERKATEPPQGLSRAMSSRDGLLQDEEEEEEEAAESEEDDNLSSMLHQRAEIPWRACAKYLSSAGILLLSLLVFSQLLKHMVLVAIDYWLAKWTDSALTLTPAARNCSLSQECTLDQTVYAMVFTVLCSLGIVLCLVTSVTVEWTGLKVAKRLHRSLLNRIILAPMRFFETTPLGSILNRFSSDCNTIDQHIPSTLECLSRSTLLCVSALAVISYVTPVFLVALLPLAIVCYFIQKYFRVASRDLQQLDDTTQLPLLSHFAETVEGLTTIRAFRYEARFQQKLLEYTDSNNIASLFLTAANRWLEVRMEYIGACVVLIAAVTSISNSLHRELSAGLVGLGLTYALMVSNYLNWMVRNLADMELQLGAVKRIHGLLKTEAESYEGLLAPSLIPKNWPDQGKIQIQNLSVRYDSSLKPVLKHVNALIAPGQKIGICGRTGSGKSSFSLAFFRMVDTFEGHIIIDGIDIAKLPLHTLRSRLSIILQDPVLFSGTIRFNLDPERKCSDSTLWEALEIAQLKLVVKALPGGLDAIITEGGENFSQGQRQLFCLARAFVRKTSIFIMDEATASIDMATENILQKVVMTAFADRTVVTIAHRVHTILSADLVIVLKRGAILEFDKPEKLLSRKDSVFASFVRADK
T1 sequence (Q14654 whole entry partner): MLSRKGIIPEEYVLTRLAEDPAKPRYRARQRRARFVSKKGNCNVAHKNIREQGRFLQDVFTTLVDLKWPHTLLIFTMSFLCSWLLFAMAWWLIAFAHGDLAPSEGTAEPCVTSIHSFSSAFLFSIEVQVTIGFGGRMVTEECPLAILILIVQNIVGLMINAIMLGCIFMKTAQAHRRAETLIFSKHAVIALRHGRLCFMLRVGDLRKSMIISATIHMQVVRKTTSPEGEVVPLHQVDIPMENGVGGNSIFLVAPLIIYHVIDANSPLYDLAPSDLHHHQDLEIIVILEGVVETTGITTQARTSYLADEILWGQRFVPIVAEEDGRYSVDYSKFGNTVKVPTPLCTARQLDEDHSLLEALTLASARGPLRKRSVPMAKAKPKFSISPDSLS

[2] = target: T2, sulfonylurea receptor 1 (SUR1) (Homo sapiens, UniProt Q09428, W143R); test: pharmacochaperone rescue in cells at […] (western blot, Rb+ efflux)
T2 construct: gene ABCC8; human FLAG-tagged SUR1 (f-SUR1) coexpressed with human Kir6.2 in COSm6 cells; with Kir6.2 (KCNJ11)
T2 sequence (Q09428 whole entry W143R): as the sequence (Q09428 whole entry) above, with W143R counted along it
T2 sequence (Q14654 whole entry partner): as the sequence (Q14654 whole entry partner) above

[3] = target: T1, sulfonylurea receptor 1 (SUR1); test: inside-out patch-clamp dose-response
[4] = target: T3, sulfonylurea receptor 1 (SUR1) (Homo sapiens, UniProt Q09428, Y124F); test: inside-out patch-clamp dose-response
T3 construct: gene ABCC8; human FLAG-tagged SUR1 (f-SUR1) coexpressed with human Kir6.2 in COSm6 cells; with Kir6.2 (KCNJ11)
T3 sequence (Q09428 whole entry Y124F): as the sequence (Q09428 whole entry) above, with Y124F counted along it
T3 sequence (Q14654 whole entry, further chain): as the sequence (Q14654 whole entry partner) above

COc1ccc(Cl)cc1C(=O)NCCc1ccc(S(=O)(=O)NC(=O)NC2CCCCC2)cc1 [GBC, glibenclamide]
Rb+ efflux inhibition in cells after 10 μM overnight treatment and washout [1]: This reduction is due to GBC inhibition of channels already present at the cell surface.

CCCCNC(=O)NS(=O)(=O)c1ccc(C)cc1 [Tolb, tolbutamide]
pharmacochaperone rescue in cells at 200 μM (western blot, Rb+ efflux) [2]: N32K, P133R, W143R, and Y230C mutations showed clear albeit variable response to the three pharmacochaperones

Nc1ncnc2c1ncn2[C@@H]1O[C@H](COP(=O)(O)OP(=O)(O)O)[C@@H](O)[C@H]1O [MgADP]
EC50 [3]: 62.2 ± 18.8 µM
EC50 [4]: 224 ± 47.9 µM
